Assay results: ChEMBL document CHEMBL3872227, “Discovery of novel xanthine compounds targeting DPP-IV and GPR119 as anti-diabetic agents” (Eur J Med Chem, 2016)

Key:
[1] = target: T1, Glucose-dependent insulinotropic receptor (Homo sapiens) (UniProt Q8TDV5); experiment: Agonist activity at CREB-LBD and GAL4-DBD fused human GPR119 expressed in HEK293 cells at 1 uM by luciferase reporter gene assay relative to AR231453; format: functional, cell-based
T1 sequence (whole entry): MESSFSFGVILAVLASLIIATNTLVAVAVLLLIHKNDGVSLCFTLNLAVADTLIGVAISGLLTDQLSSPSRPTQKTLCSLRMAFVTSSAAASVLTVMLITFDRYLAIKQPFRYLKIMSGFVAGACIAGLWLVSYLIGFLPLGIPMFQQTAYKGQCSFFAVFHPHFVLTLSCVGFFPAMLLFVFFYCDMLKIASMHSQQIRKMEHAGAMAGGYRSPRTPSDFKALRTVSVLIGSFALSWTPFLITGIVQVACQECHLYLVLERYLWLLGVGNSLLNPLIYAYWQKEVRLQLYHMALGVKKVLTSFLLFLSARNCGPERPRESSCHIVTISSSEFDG

[2] = target: Dipeptidyl peptidase 8/9 (Homo sapiens) (UniProt Q6V1X1+Q86TI2); experiment: Inhibition of full length recombinant human DPP-8/9 expressed in HEK293 cells at 10 uM incubated for 1 hr; format: cell-based
Chain of Dipeptidyl peptidase 8/9 (Homo sapiens) (Q6V1X1 whole entry, looked up, the tested form may be a part): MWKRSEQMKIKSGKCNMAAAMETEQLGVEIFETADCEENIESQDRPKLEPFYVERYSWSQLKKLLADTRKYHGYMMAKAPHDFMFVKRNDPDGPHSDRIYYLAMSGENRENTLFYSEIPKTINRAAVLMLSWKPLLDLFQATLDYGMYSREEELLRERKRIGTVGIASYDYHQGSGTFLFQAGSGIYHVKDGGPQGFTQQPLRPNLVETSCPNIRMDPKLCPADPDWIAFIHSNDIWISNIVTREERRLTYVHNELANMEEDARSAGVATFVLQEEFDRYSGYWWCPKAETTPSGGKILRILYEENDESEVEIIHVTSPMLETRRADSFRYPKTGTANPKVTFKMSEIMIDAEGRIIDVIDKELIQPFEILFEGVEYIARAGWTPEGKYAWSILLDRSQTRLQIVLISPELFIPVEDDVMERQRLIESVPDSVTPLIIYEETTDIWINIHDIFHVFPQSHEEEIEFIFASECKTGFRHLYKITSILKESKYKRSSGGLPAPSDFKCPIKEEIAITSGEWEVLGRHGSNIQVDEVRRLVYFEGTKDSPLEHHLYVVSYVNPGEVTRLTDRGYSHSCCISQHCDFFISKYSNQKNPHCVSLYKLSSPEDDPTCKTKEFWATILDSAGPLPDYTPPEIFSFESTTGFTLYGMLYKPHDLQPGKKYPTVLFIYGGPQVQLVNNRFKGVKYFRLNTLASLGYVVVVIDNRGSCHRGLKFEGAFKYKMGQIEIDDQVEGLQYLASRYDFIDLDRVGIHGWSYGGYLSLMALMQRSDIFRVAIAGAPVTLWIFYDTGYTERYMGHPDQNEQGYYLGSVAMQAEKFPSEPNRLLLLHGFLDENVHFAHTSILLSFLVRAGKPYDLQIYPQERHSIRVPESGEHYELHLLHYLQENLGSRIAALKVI
Chain of Dipeptidyl peptidase 8/9 (Homo sapiens) (Q86TI2 whole entry, looked up, the tested form may be a part): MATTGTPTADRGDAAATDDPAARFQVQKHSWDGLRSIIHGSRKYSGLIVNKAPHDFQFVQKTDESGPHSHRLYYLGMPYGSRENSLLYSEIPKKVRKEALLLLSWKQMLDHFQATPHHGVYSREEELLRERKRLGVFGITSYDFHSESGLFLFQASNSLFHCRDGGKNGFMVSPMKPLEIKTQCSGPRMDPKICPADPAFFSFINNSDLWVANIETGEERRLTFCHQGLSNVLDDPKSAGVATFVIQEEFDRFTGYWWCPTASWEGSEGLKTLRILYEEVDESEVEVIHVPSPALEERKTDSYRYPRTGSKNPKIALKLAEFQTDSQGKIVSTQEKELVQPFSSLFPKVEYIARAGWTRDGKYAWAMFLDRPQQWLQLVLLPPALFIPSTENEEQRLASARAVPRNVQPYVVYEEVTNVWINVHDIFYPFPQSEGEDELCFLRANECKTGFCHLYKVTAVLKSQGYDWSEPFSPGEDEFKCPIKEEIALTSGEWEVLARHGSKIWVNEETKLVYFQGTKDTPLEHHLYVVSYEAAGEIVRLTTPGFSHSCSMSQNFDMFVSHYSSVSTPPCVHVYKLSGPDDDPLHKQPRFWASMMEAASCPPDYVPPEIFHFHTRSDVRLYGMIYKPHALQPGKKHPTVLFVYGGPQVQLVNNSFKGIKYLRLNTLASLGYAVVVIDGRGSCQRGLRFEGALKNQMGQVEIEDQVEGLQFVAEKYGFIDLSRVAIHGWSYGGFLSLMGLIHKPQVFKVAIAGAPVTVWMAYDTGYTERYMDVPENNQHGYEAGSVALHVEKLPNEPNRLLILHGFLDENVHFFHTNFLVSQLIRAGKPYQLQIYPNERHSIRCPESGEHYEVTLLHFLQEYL

[3] = target: T2, Glucose-dependent insulinotropic receptor (Homo sapiens, UniProt Q8TDV5); experiment: Agonist activity at CREB-LBD and GAL4-DBD fused human GPR119 expressed in HEK293 cells by luciferase reporter gene assay; format: functional, cell-based
T2 sequence (Q8TDV5 whole entry): T1 sequence (whole entry)

[4] = Metabolic stability in mouse liver microsomes at 1 umol/L after 30 mins by LC/MS/MS method; format: ADME; settings: 0.5 h, 1 µM

Activity [1]	inhibition [2]	EC50 [3]	Stability [4]	Structure (SMILES)
79.3%	0%	1900 nM		CC#CCn1c(N2CCC[C@@H](N)C2)nc2c1c(=O)n(CC1CCN(C(=O)OC(C)C)CC1)c(=O)n2C
66.1%	36.8%			CC#CCn1c(N2CCC[C@@H](N)C2)nc2c1c(=O)n(CCCC1CCN(C(=O)OC(C)C)CC1)c(=O)n2C
26.2%				CC#CCn1c(N2CCC[C@@H](N)C2)nc2c1c(=O)n(CCCN1CCC(C(=O)Nc3ccc(C)cc3)CC1)c(=O)n2C
81.5%	36.8%	950 nM	Stable	CC#CCn1c(N2CCC[C@@H](N)C2)nc2c1c(=O)n(CCCN1CCC(C(=O)Nc3ccccc3)CC1)c(=O)n2C
60.4%	16%			CC#CCn1c(N2CCC[C@@H](N)C2)nc2c1c(=O)n(CCCN1CCC(C(=O)OC(C)C)CC1)c(=O)n2C
44.4%				CC#CCn1c(N2CCC[C@@H](N)C2)nc2c1c(=O)n(CCCN1CCC(C(=O)Nc3ccc(OC)cc3)CC1)c(=O)n2C
36.5%				CC#CCn1c(N2CC(N)C2)nc2c1c(=O)n(CCCN1CCC(C(=O)OC(C)C)CC1)c(=O)n2C
74.5%	21.1%			CC#CCn1c(N2CCC[C@@H](N)C2)nc2c1c(=O)n(CCCN1CCC(C(=O)OC)CC1)c(=O)n2C
70.7%	26.3%			CC#CCn1c(N2CCC[C@@H](N)C2)nc2c1c(=O)n(CCCN1CCC(C(=O)Oc3ccccc3)CC1)c(=O)n2C
54.8%				CC#CCn1c(N2CCC[C@@H](N)C2)nc2c1c(=O)n(CCCN1CCC(C(=O)OC3CCC3)CC1)c(=O)n2C
31.9%				CC#CCn1c(N2CCC[C@@H](N)C2)nc2c1c(=O)n(CCCN1CCC(C(=O)OCCC)CC1)c(=O)n2C
		700 nM		CC(C)c1noc(C2CCN(c3ncnc(Nc4ccc(S(C)(=O)=O)cc4F)c3[N+](=O)[O-])CC2)n1
29.9%				CC#CCn1c(N2CCC[C@@H](N)C2)nc2c1c(=O)n(CCCN1CCC(C(=O)OC3CCCCC3)CC1)c(=O)n2C
16.2%				CC#CCn1c(N2CCC[C@@H](N)C2)nc2c1c(=O)n(CCCN1CCC(C(=O)Nc3ccc(F)cc3)CC1)c(=O)n2C
63.9%				CC#CCn1c(N2CC[C@@H](N)C2)nc2c1c(=O)n(CCCN1CCC(C(=O)OC(C)C)CC1)c(=O)n2C
69.6%	22.5%			CC#CCn1c(N2CCCNCC2)nc2c1c(=O)n(CCCN1CCC(C(=O)OC(C)C)CC1)c(=O)n2C
54.2%				CC#CCn1c(N2CCC[C@@H](N)C2)nc2c1c(=O)n(CCN1CCC(C(=O)OC(C)C)CC1)c(=O)n2C
69.8%	10.5%			CC#CCn1c(N2CCC[C@@H](N)C2)nc2c1c(=O)n(CCC1CCN(C(=O)OC(C)C)CC1)c(=O)n2C
9.8%				CC#CCn1c(N2CCC[C@@H](N)C2)nc2c1c(=O)n(CCCCN1CCC(C(=O)OC(C)C)CC1)c(=O)n2C
51.4%	12.5%			CC#CCn1c(N2CCC[C@@H](N)C2)nc2c1c(=O)n(CCCN1CCC(C(=O)OCC)CC1)c(=O)n2C
61.8%	31.6%			CC#CCn1c(N2CCC[C@@H](N)C2)nc2c1c(=O)n(CCCCC1CCN(C(=O)OC(C)C)CC1)c(=O)n2C
42.7%				CC#CCn1c(N2CCC[C@@H](N)C2)nc2c1c(=O)n(CCCN1CCC(C(=O)OC3CCCC3)CC1)c(=O)n2C
61.3%	38.1%			CC#CCn1c(N2CCC[C@@H](N)C2)nc2c1c(=O)n(CCCN1CCC(C(=O)N(C)C)CC1)c(=O)n2C
68.8%				CC#CCn1c(N2CCC[C@@H](N)C2)nc2c1c(=O)n(CCCN1CCC(C(=O)Nc3ccc(C#N)cc3)CC1)c(=O)n2C
18.9%				CC#CCn1c(N2CCC[C@@H](N)C2)nc2c1c(=O)n(CCCN1CCC(C(=O)Nc3ccc(Cl)cc3)CC1)c(=O)n2C
27.9%				CC#CCn1c(N2CCC[C@@H](N)C2)nc2c1c(=O)n(CCCN1CCC(C(=O)Nc3ccc(Br)cc3)CC1)c(=O)n2C
14.5%				CC#CCn1c(N2CCC(N)CC2)nc2c1c(=O)n(CCCN1CCC(C(=O)OC(C)C)CC1)c(=O)n2C
